Laboratory results from article PMC6526958 (Journal of medicinal chemistry, 2019).
“Also recorded” adds a separate entry of the source. One block for each compound: values may come before it.

Legend:
[1] = system: recombinant soluble human CD73; experiment: radiometric CD73 assay with [2,8-3H]AMP, recombinant soluble human CD73; format: biochemical; conditions: human versus rat CD73
CD73 = CD73 enzyme inhibition assay, control for the triethylammonium salt form; format: biochemical; conditions: 500 µM
[2] = biological target: T1, recombinant soluble rat CD73 (Rattus norvegicus, UniProt P21588); experiment: radiometric CD73 assay with [2,8-3H]AMP, recombinant soluble rat CD73; format: biochemical; conditions: for fold less active than AOPCP: rat CD73 Ki relative to AOPCP
T1 sequence (P21588 29-551 limits assumed): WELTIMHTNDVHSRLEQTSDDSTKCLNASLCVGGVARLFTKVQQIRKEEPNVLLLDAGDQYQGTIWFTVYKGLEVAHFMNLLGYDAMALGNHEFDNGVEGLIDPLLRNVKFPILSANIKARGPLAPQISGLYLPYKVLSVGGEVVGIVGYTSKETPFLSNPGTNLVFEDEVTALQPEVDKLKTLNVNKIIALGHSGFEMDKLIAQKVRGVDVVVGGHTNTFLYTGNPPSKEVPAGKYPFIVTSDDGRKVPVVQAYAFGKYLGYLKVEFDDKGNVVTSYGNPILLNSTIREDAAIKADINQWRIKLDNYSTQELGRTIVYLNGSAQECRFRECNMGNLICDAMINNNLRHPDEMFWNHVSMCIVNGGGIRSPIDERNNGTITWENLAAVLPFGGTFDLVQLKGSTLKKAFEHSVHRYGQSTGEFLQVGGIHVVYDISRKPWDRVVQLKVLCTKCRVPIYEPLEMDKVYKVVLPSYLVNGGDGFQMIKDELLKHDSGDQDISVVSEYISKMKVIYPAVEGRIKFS

[3] = biological target: T2, recombinant soluble human CD73 (Homo sapiens, UniProt P21589); experiment: radiometric CD73 assay with [2,8-3H]AMP, recombinant soluble human CD73; format: biochemical
T2 sequence (P21589 28-549): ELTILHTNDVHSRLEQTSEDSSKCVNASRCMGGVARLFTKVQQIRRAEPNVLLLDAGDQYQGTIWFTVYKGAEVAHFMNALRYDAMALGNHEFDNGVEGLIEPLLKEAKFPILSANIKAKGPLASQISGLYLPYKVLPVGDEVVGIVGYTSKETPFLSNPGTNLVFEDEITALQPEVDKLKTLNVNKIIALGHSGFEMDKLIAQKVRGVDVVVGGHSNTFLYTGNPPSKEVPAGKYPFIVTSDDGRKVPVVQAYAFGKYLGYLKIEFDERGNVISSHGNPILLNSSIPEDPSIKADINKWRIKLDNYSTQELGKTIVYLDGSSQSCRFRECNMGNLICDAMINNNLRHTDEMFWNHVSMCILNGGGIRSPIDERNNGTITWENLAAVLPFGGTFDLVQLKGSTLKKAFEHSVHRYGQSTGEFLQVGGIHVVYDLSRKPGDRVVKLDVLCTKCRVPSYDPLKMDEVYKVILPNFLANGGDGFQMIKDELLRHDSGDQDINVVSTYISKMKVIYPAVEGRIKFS

[4] = biological target: T3, membrane-bound CD73 (MDA-MB-231 membrane preparation) (Homo sapiens, UniProt P21589); experiment: radiometric CD73 assay, membrane preparations of MDA-MB-231 cells; format: biochemical
T3 sequence (P21589 27-574): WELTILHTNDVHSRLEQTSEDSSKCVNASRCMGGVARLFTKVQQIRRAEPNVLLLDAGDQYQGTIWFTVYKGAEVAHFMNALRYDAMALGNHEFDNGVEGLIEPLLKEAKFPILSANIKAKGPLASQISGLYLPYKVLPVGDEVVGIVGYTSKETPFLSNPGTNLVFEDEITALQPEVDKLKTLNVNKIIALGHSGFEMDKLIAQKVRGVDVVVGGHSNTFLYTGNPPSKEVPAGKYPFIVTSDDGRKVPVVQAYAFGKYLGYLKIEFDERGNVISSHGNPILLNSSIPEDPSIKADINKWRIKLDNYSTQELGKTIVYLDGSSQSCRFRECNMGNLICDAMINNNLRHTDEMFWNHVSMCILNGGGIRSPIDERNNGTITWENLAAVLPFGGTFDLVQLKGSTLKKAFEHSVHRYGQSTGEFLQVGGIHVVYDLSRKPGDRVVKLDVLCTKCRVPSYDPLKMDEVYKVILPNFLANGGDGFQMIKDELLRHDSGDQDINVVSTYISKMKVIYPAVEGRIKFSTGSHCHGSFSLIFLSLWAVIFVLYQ

human P2Y6 receptor = human P2Y6 receptor (Homo sapiens, UniProt Q15077); format: cell-based; conditions: 9h up to 3.0 µM
Sequence of human P2Y6 receptor (Q15077 whole entry): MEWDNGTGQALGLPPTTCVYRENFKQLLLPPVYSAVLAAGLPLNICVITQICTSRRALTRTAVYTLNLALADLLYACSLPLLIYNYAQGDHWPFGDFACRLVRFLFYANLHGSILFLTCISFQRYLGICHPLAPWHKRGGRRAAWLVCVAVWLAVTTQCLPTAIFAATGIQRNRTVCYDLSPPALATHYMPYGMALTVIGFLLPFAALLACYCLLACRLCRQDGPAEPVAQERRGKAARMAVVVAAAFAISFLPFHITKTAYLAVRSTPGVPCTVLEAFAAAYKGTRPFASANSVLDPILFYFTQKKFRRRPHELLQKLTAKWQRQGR

human P2Y14 receptor = biological target: T4, human P2Y14 receptor (Homo sapiens, UniProt Q15391); experiment: fluorescent antagonist binding competition; conditions: 9h up to 3.0 µM
T4 sequence (Q15391 1-338): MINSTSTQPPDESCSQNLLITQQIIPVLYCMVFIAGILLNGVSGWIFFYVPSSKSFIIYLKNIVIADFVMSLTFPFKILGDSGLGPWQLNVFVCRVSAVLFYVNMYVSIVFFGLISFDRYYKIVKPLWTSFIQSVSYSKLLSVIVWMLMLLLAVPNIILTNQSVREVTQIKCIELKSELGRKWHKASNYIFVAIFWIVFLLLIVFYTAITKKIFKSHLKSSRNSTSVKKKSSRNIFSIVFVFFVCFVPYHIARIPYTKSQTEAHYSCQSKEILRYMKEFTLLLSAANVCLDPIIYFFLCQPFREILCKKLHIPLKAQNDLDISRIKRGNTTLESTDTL

eN/CD73 in human tonsils = biological target: T5, eN/CD73 in human tonsils (Homo sapiens, UniProt P21589); experiment: in situ ecto-5′-nucleotidase; format: biochemical; conditions: human tonsil cryosections
T5 sequence (P21589 27-574): T3 sequence (P21589 27-574)

[5] = stability in aqueous solution; format: physicochemical; conditions: room temperature

- fold more potent at human CD73 as compared to the rat enzyme [1]: 2 to 3 fold
Compound: O=c1[nH]/c(=N/OCc2ccc3ccccc3c2)ccn1[C@@H]1O[C@H](COP(=O)(O)CP(=O)(O)O)[C@@H](O)[C@H]1O [9e, N^4-[O-(Naphthalen-2-ylmethoxy)]-cytidine-5′-O-[(phosphonomethyl)phosphonic acid]]

- Ki [2]: 30.3 ± 4.2 nM
- Ki [3]: 14 ± 1.6 nM
- fold more potent at human CD73 as compared to the rat enzyme [1]: 2 to 3 fold
- Ki [4]: 10.1 ± 1.4 nM
Compound: O=c1[nH]c(=NOCc2ccc(C(F)(F)F)cc2)ccn1[C@@H]1O[C@H](COP(=O)(O)CP(=O)(O)O)[C@@H](O)[C@H]1O [9d, N^4-[O-(4-Trifluoromethylbenzyloxy)]-cytidine-5′-O-[(phosphonomethyl)phosphonic acid]]

- potency at P2Y6 receptor (in words) (human P2Y6 receptor): completely inactive
- potency at P2Y14 receptor (in words) (human P2Y14 receptor): completely inactive
- reversibility of CD73 inhibition (eN/CD73 in human tonsils): highly reversible CD73 inhibitor
Compound: Cn1c(=O)n([C@@H]2O[C@H](COP(=O)(O)CP(=O)(O)O)[C@@H](O)[C@H]2O)cc/c1=N/OCc1ccccc1 [9h, N^4-[O-(4-Benzyloxy)]-3-methyl-cytidine-5′-O-[(phosphonomethyl)phosphonic acid]]
- inhibition of CD73 catalytic (AMPase) activity in situ (eN/CD73 in human tonsils; 1, 10 and 100 nM, 100 µM AMP): inhibited catalytic activity of CD73 in a concentration-dependent manner, in situ more potently than AOPCP

- fold less active than AOPCP [2]: 5 fold
Compound: Nc1ccn([C@@H]2O[C@H](COP(=O)(O)CP(=O)(O)O)[C@@H](O)[C@H]2O)c(=O)n1 [7a, Cytidine-5′-O-[(phosphonomethyl)phosphonic acid]]

- fold more potent at human CD73 as compared to the rat enzyme [1]: 5 fold
Compound: O=c1[nH]/c(=N/OCc2ccccc2)c(F)cn1[C@@H]1O[C@H](COP(=O)(O)CP(=O)(O)O)[C@@H](O)[C@H]1O [9g, N^4-[O-(4-Benzyloxy)]-5-fluoro-cytidine-5′-O-[(phosphonomethyl)phosphonic acid]]

Further lines, the compound ahead of its results:

Compound: CCN(CC)CC.Cl [triethylammonium chloride]
- reduction of CD73 enzymatic activity (CD73): no reduction of enzymatic activity was detected

Compound: O=c1cc(O)ccn1[C@@H]1O[C@H](COP(=O)(O)CP(=O)(O)O)[C@@H](O)[C@H]1O [compound 10, 3-Deazauridine-5′-O-[(phosphonomethyl)phosphonic acid]]
- CD73 inhibitory activity (in words) ([2]; rat CD73): inactive

Compound: CO[C@@H]1[C@H](O)[C@@H](COP(=O)(O)CP(=O)(O)O)O[C@H]1n1cc(C)c(=O)[nH]c1=O [4h, 2′-O-Methyl-5-methyluridine-5′-O-[(phosphonomethyl)phosphonic acid]]
- CD73 inhibitory activity (in words) ([2]; rat CD73): inactive

Compound: O=c1ccn([C@@H]2O[C@H](COP(=O)(O)CP(=O)(O)O)[C@@H](O)[C@H]2O)c(=O)[nH]1 [4a, Uridine-5′-O-[(phosphonomethyl)phosphonic acid]]
- fold less active than AOPCP [2]: 11 fold

Compound: O=c1ccn([C@@H]2O[C@H](COP(=O)(O)CP(=O)(O)O)[C@@H](O)[C@H]2O)c(=O)n1Cc1ccccc1 [4e, 3-Benzyluridine-5′-O-[(phosphonomethyl)phosphonic acid]]
- CD73 inhibitory activity (in words) ([2]; rat CD73): inactive

Compound: O=C(Nc1ccn([C@@H]2O[C@H](COP(=O)(O)CP(=O)(O)O)[C@@H](O)[C@H]2O)c(=O)n1)c1ccccc1 [7f, 4-Benzoylcytidine-5′-O-[(phosphonomethyl)phosphonic acid]]
- fold more potent at human CD73 as compared to the rat enzyme [1]: 2 to 3 fold
- potency at P2Y6 receptor (in words) (human P2Y6 receptor): potencies in the micromolar range
- potency at P2Y14 receptor (in words) (human P2Y14 receptor): potencies in the micromolar range
- stability in aqueous solution [5]: gradual decomposition when left at room temperature over several weeks in aqueous solution to UOPCP (4a) and COPCP (7a); also recorded: decomposition of compound 7f to UOPCP

Compound: CCn1c(=O)ccn([C@@H]2O[C@H](COP(=O)(O)CP(=O)(O)O)[C@@H](O)[C@H]2O)c1=O [4c, 3-Ethyluridine-5′-O-[(phosphonomethyl)phosphonic acid]]
- CD73 inhibitory activity (in words) ([2]; rat CD73): inactive

Compound: Nc1ncnc2c1ccn2[C@@H]1O[C@H](COP(=O)(O)CP(=O)(O)O)[C@@H](O)[C@H]1O [2g, 7-Deazaadenosine-5′-O-[(phosphonomethyl)phosphonic acid]]
- fold higher CD73 inhibitory activity compared to AOPCP ([2]; rat CD73): 2 fold

Compound: CCCn1c(=O)ccn([C@@H]2O[C@H](COP(=O)(O)CP(=O)(O)O)[C@@H](O)[C@H]2O)c1=O [4d, 3-Propyluridine-5′-O-[(phosphonomethyl)phosphonic acid]]
- CD73 inhibitory activity (in words) ([2]; rat CD73): inactive

Compound: Nc1ncnc2c1ncn2[C@@H]1O[C@H](COP(=O)(O)O)[C@@H](O)[C@H]1O [AMP, adenosine 5′-monophosphate]
- Km ([2]; read-out: Km, rat CD73, substrate AMP): 53 ± 4.1 µM

Compound: Nc1ccnc2c1ncn2[C@@H]1O[C@H](COP(=O)(O)CP(=O)(O)O)[C@@H](O)[C@H]1O [2e, 1-Deazaadenosine-5′-O-[(phosphonomethyl)phosphonic acid]]
- CD73 inhibitory activity (in words) ([2]; rat CD73): inactive

Compound: O=c1ccn([C@@H]2O[C@H](COP(=O)(O)CCP(=O)(O)O)[C@@H](O)[C@H]2O)c(=O)[nH]1 [4w, Uridine-5′-O-[(phosphonoethyl)phosphonic acid]]
- CD73 inhibitory activity (in words) ([2]; rat CD73): complete loss of CD73 inhibition

Compound: CCOP(=O)(O)OP(=O)(O)OC[C@H]1O[C@@H](n2ccc(=O)[nH]c2=S)[C@H](O)[C@@H]1O [compound 12]
- CD73 inhibitory activity (in words) ([2]; rat CD73): inactive

Compound: Cc1cn([C@@H]2O[C@H](COP(=O)(O)CCP(=O)(O)O)[C@@H](O)[C@H]2O)c(=O)[nH]c1=O [4x, 5-Methyluridine-5′-O-[(phosphonoethyl)phosphonic acid]]
- CD73 inhibitory activity (in words) ([2]; rat CD73): complete loss of CD73 inhibition

Compound: O=c1[nH]c(=O)n([C@@H]2O[C@H](COP(=O)(O)CP(=O)(O)O)[C@@H](O)[C@H]2O)cc1F [4l, 5-Fluorouridine-5′-O-[(phosphonomethyl)phosphonic acid]]
- fold more potent at human CD73 as compared to the rat enzyme [1]: 2 to 3 fold

Compound: O=c1ccn([C@@H]2O[C@H](COP(=O)(O)CP(=O)(O)O)[C@@H](O)[C@H]2O)c(=S)[nH]1 [4y, 2-Thiouridine-5′-O-[(phosphonomethyl)phosphonic acid]]
- CD73 inhibitory activity (in words) ([2]; rat CD73): not tolerated

Compound: Nc1nccc2c1ncn2[C@@H]1O[C@H](COP(=O)(O)CP(=O)(O)O)[C@@H](O)[C@H]1O [2f, 3-Deazaadenosine-5′-O-[(phosphonomethyl)phosphonic acid]]
- CD73 inhibitory activity (in words) ([2]; rat CD73): inactive

Compound: O=c1ccn([C@@]23C[C@H]2[C@H](COP(=O)(O)CP(=O)(O)O)[C@@H](O)[C@H]3O)c(=O)[nH]1 [compound 11, (S)-Methanocarbauridine-5′-O-[(phosphonomethyl)phosphonic acid]]
- CD73 inhibitory activity (in words) ([2]; rat CD73): inactive
